One series concerns HCT116 p53^+/+ cells. Kind of series: SRB cytotoxicity assay on HCT116 p53+/+ cells. It is filed as cell-based, human. The note with it: Homo sapiens, HCT-116, 48 h of treatment. The source says: (§1) The SCC-25 (ATCC® CRL-1628™), Detroit-562 (ATCC® CCL-138™), and THP-1 (ATCC® TIB-202™) cells were purchased from Rio de Janeiro Cell Bank (Duque de Caxias, Brazil), and NOK-si was kindly provided by Prof. Carlos Rossa from the School of Dentistry—UNESP. All the cells were cultivated according to standard conditions. Human colorectal adenocarcinoma HCT116 cell lines (ATCC® CCL-247™) expressing p53 and its p53-null isogenic derivative (HCT116 p53^−/−) were provided by B. Vogelstein (The Johns Hopkins Kimmel Cancer Center, Baltimore, MD, USA).
HCT p53^+/+ and HCT p53^−/− cell lines were seeded in 96-well plates, with a concentration of 5000 cells/well, and allowed to adhere overnight. Afterwards, they were treated with serial dilutions of the compounds for an additional 48 h (compounds were prepared at 30 mM, in DMSO, and tested with a starting concentration of 50μM and 15 μM). Cells passed then through a series of essential steps (fixation with 10% trichloroacetic acid, for 1 h at 4 °C; staining with 0.4% sulforhodamine B (SRB); wash with 1% acetic acid; and solubilization with 10 mM Tris-Base); subsequently, absorbance was measured at 510 nm in a microplate reader (Biotek Instruments Inc., Synergy, MX, USA). IC50 values were determined using GraphPad Prism software, Version 7.0 (La Jolla, CA, USA).
(Sulforhodamine B stains cellular protein and so reports cell mass.)

Series [1] in a line: Metabolic stability in mouse (CD-1) liver microsomes. It is filed as in vitro ADME. On the procedure: (§2) The metabolic stability of test compounds and controls [imipramine (Sigma-Aldrich, St. Louis, MO, USA), verapamil (Sigma-Aldrich, St. Louis, MO, USA), and warfarin (Sigma-Aldrich, St. Louis, MO, USA)] were assessed using human pooled liver human microsomes (20 mg/mL) (GIBCO, Frederick, MD, USA) and pooled liver CD1 mouse microsomes (20 mg/mL) (GIBCO, Frederick, MD, USA). […] Microsomal suspensions were thawed and diluted in phosphate buffer to obtain a final concentration of 0.25 mg/mL. A solution of NADPH (Sigma-Aldrich, St. Louis, MO, USA) at […] was also prepared in phosphate buffer. […] The plate was incubated at 37 °C under shaking (100 rpm). […] The reactions were stopped by adding quenching solution (75 μL) consisting of acetonitrile:methanol (1:1) with an internal standard (50 nM). Samples were centrifuged (3500 rpm, 30 min) to remove precipitated microsomal proteins, and the supernatant fractions were analyzed by an LCMS-8045 system (Shimazu, Kyoto, Japan). The chromatographic analysis was performed using a Supelco Ascentis Express C18 column (3 cm × 2.1 mm, 5 μm). The mobile phases consisted of water + 0.1% formic acid (A) and acetonitrile + 0.1% formic acid (B). […] The run time was 2 min, with a sample injection volume of 10 μL and a flow rate of 0.7 mL/min. Metabolic stability was assessed by calculating the peak area ratios (analyte/internal standard) and converting them into the percentage of the compound remaining, using the area ratio at time 0 as 100%.
A general note: Liver microsomes are a subcellular fraction often used to study metabolism.

The nature of series [2]: Metabolic stability in human liver microsomes. The series is classed as in vitro ADME. On the procedure: as §2
Another series relates to Detroit-562 cells. Kind of series: MTT cytotoxicity assay on Detroit-562 cells. It is filed as cell-based.
Excerpt: as §1
Cells (NOK-si, SCC-25, and Detroit-562) were grown in a DMEM medium (Dulbecco’s Modified Eagle Medium), supplemented according to the needs of each lineage, as recommended by its cell banks, with 2 mM L-glutamine, 10% or 20% fetal bovine serum (FBS), 1% antibiotic–antimycotic solution (5 mg/mL penicillin, 5 mg/mL streptomycin, and 10 mg/mL neomycin), 4.5 g/L of glucose, and 3.7 g/L of sodium bicarbonate (NaHCO3). All cell lines were cultured in flasks at 37 °C in 5% carbon dioxide (CO2) and 95% of relative humidity. The assays were conducted between the third- and the seventh-cell passage, with sub-cultures every 3–4 days to maintain exponential growth. The cell viability was checked using the trypan blue dye exclusion assay for all experiments, where over 95% of the cells were viable at the beginning of the tests. NOK-si, SCC-25, and Detroit-562 were initially thawed and cultured in 25 cm^2 cell culture flasks. Cell growth was monitored using a microscope, and the culture medium was changed periodically. […] Absorbance was read at 562 nm using an EZ Read 400 microplate reader (Biochrom, Cambridge, UK) and ADAP 2.0 Biochrom software (version 2.0). IC50 values and graphs were calculated using Excel and Prism software (version 10.4.1). The MTT assay results were evaluated for normality using the Shapiro–Wilk test, followed by one-way ANOVA with Tukey’s post hoc test at a significance level of 5%.
A general note: Tetrazolium assays rely on reduction of a dye to a coloured formazan, in cell work by metabolically active cells.

SMILES strings stand for the structures.

The values below come from publication PMC12301034, “Design and Synthesis of Boronic Chalcones with Dual Anticancer and Anti-Inflammatory Activity” (Molecules, 2025).

Usually IC50 stands for the concentration needed to halve the response being measured.

As to `COc1cccc(C(=O)/C=C/c2cccc(B(O)O)c2)c1` [Compound 5, (E)-(3-(3-(3-methoxyphenyl)-3-oxoprop-1-en-1-yl)phenyl)boronic acid], the IC50 in the series with HCT116 p53^+/+ cells was 2.5 ± 0.17 µM; in the series with Detroit-562 cells (Homo sapiens, MTT, 24 h incubation, Detroit-562 metastatic pharyngeal cancer model) it was 33.1 ± 5.1 µM. The microsomal CLint at 0.51 μM turned out to be 36 µL/min/mg in series [1] (CD-1, mouse, microsomes, pH 7.4); 56.8 µL/min/mg in series [2] (human, microsomes, pH 7.4); 77 µL/min/mg in series [2] (human, pooled liver microsomes, pH 7.4, read-out: intrinsic clearance (Clint) in HLM). In addition, the half-life at 0.51 μM turned out to be 56.8 min in series [1] (CD-1, mouse, pooled liver microsomes, pH 7.4, read-out: Mouse Liver Microsome (MsLM) T1/2) and 48.8 min in series [2] (human, pooled liver microsomes, pH 7.4, read-out: Human Liver Microsome (HLM) T1/2). In series [1] (mouse), the “Mouse Liver Microsome (MsLM) T1/2” value came to 77.02 min. Also, the “intrinsic clearance (Clint) in HLM” value in series [2] is reported as “high clearance”. For the same compound, the “SI against the metastatic cell line (NOK-si vs Detroit-562)” value in the series with Detroit-562 cells (selectivity index) is “greater than 1.7”.
